Several values for one entry are separate records, joined by “and”; a condition that tells them apart may be missing. Equal values may be shown once.
Tests used:
KB-3-1cisR cells [1] = test: Colony formation assay; format: cell-based, human; conditions: 5 μg/ml cisplatin 24 h, then 10 days, normalised, n=1-3: biological replicates
Procedure: (§1) Cell viability was determined using the CellTiter-Glo Luminescent Cell Viability Assay. […] Subsequently, the cells were cultured in complete medium for an additional 10 days, and the resulting colonies were visualized by staining with crystal violet and quantified using ImageJ software. For cell cycle analysis, cells fixed with 70% ethanol were stained with RNase A (100 µg/mL) and propidium iodide (50 μg/ml) for 30 min at 37 °C, and DNA content distribution was measured using flow cytometry (BD Symphony A3) and analyzed with FlowJo software (v10.9). Apoptotic cell death was assessed via FITC-conjugated annexin V and propidium iodide staining.

A549cisR cells [2] = test: Colony formation assay; format: cell-based, human; conditions: 2 μg/ml cisplatin 24 h, then 10 days, normalised, n=1-3: biological replicates
Procedure: as §1

HCT116 cells = test: Apoptotic cell death (annexin V/PI staining); format: cell-based, human; conditions: Supple Fig 6A
Procedure: as §1
(§2) Colon cancer cell lines, HCT116 (a) and HT-29 (b), were stably transduced with DLAT shRNA harboring lentivirus, followed by annexin V staining and CellTiter Glo Viability assay. Error bars represent SD and are from 3 independent biological replicates. P values were obtained by one-way ANOVA.
(§3) (1 picture or pasted object on this page, not shown here)

HT-29 cells = test: Apoptotic cell death (annexin V/PI staining); format: cell-based, human; conditions: Supple Fig 6B
Procedure: as §1, §2, §3

A549cisR cells [3] = test: Apoptotic cell death (annexin V/PI staining); format: cell-based, human; conditions: cisplatin 2 μg/ml, 48 h, n=1-4: biological replicates, listed as cis
H1299 cells = test: Apoptotic cell death (annexin V/PI staining); format: cell-based, human; conditions: cisplatin 5 μg/ml, 48 h, n=1-3: biological replicates
KB-3-1cisR cells [4] = test: Apoptotic cell death (annexin V/PI staining); format: cell-based, human
GSH/GSSG = GSH/GSSG ratio (GSH/GSSG-Glo); format: cell-based, human
Procedure: (§4) Cellular metabolic states were examined through various assays. To gauge the levels of total intracellular or mitochondrial reactive oxygen species (ROS), cells were stained with CM-H2DCFDA or mitoSOX, respectively. Intracellular H2O2, NADPH, acetyl-CoA, and GSH/GSSG ratios were quantified using commercial assay kits as listed in the Reagents. Intracellular ATP levels were determined utilizing the ATP bioluminescent somatic cell assay and normalized to the total protein concentrations. The de novo synthesized RNA and proteins were assessed in cancer cells using commercial assays following the manufacturer’s protocols. In brief, O-propargyl-puromycin or uridine analog, 5-EU, was applied to stop translation or modify RNA. Polypeptides or modified RNA were measured using fluorescent azide with Ex/Em at 494/521 nm. PDC activity was determined by measuring the reduction of NAD+ to NADH during the conversion of pyruvate into acetyl-CoA.
Supplementary Fig. 2: GSH/GSSG ratio and NADPH level change upon DLAT knockdown and cisplatin treatment. A549cisR (a) and KB-3-1cisR (b) cells were transduced with control or […]
µg/ml; KB-3-1cisR: 5 µg/ml) for 24 h. The GSH/GSSG ratio and relative NADPH levels were measured using GSH/GSSG-Glo Assay and NADP/NADPH-Glo Assay, respectively. Error bars represent SD and are from 4 independent biological replicates for the upper panels of (a,b) and 3 for the lower panels of (a,b). P values were determined by one-way ANOVA.
as §3

cellular ROS = test: Cellular ROS level (CM-H2DCFDA staining); format: cell-based, human
Procedure: as §4

KB-3-1cisR cells [5] = conditions: read-out: cisplatin IC50; KB-3-1cisR cells generated by continuous exposure to cisplatin; cited from earlier work
Procedure: (§5) The RNAi library contains 328 shRNA clones, and each gene was targeted by 2 ~ 8 clones (Fig. 1a). Eleven genes, including DLAT, were selected as unexplored lead hits with cisplatin-sensitizing potential and were further evaluated in A549^cisR, H1299, and KB-3-1^cisR, and two acetyltrans ... || HCT116 and HT-29 colon cancer cell lines, MDA-MB231, HeLa, 293T, and KB-3-1^cisR cells were cultured in Dulbecco Modified Eagle Medium (DMEM). The PCI-37B and FaDu cell lines was maintained in DMEM/Ham’s F-12 50/50 mix medium. […] All media contained 100 U/ml penicillin and 100 μg/ml of streptomycin, supplemented with 10% fetal bovine serum. The identity of KB-3-1 and PCI-37B cells were described previously[45],[58],[59]. All other cell lines were from the American Type Culture Collection (ATCC). KB-3-1^cisR and A549^cisR cells w ...

A549cisR cells [6] = conditions: read-out: cisplatin IC50; A549cisR cells generated by continuous exposure to cisplatin; cited from earlier work
Procedure: as §5

N.N.[Cl][Pt][Cl] [cisplatin]
Colony formation assay (KB-3-1cisR cells [1]; KB-3-1cisR pLKO.1): 0.9446 and 0.763 and 0.8564 | Colony formation assay (KB-3-1cisR cells [1]; KB-3-1cisR shDLAT #1): 0.1843 and 0.1505 and 0.2102 | Colony formation assay (KB-3-1cisR cells [1]; KB-3-1cisR shDLAT #2): 0.2154 and 0.1946 and 0.1246 | Colony formation assay (A549cisR cells [2]; A549cisR pLKO.1): 1.111 and 0.9965 and 1.059 | Colony formation assay (A549cisR cells [2]; A549cisR shDLAT #1): 0.545 and 0.5035 and 0.4723 | Colony formation assay (A549cisR cells [2]; A549cisR shDLAT #2): 0.5398 and 0.5242 and 0.4931 | Apoptotic death (HCT116 cells; HCT116, pLKO.1 control cells + cis, replicate n=2): 17.9 | Apoptotic death (HCT116 cells; HCT116, shDLAT cells + cis, replicate n=2): 15.5 | Apoptotic death (HCT116 cells; HCT116, shDLAT cells + cis, replicate n=3): 18.3 | Apoptotic death (HT-29 cells; HT-29, pLKO.1 control cells + cis, replicate n=2): 20 | Apoptotic death (HT-29 cells; HT-29, pLKO.1 control cells + cis, replicate n=3): 20.2 | Apoptotic death (HT-29 cells; HT-29, shDLAT cells + cis, replicate n=1): 20.2 | Apoptotic death (HT-29 cells; HT-29, shDLAT cells + cis, replicate n=2): 22.2 | Apoptotic death (HT-29 cells; HT-29, shDLAT cells + cis, replicate n=3): 22.9 | Apoptotic death (A549cisR cells [3]; A549cisR pLKO.1+pLHCX): 7.05 and 8.53 and 8.99 and 9.51 | Apoptotic death (A549cisR cells [3]; A549cisR shDLAT+DLAT(WT) rescue): 7.31 and 8.35 and 8.93 and 10.11 | Apoptotic death (H1299 cells; H1299 pLKO.1): 12.41 | Apoptotic death (H1299 cells; H1299 shDLAT #1): 23.45 and 22.74 | Apoptotic death (H1299 cells; H1299 shDLAT #2): 18.43 | Apoptotic death (KB-3-1cisR cells [4]; KB-3-1cisR pLKO.1+pLHCX, cisplatin 5 μg/ml, 48 h, n=1-4: biological replicates, listed as cis): 8.39 and 8.75 and 8.86 and 8.83 | Apoptotic death (KB-3-1cisR cells [4]; KB-3-1cisR shDLAT+DLAT(WT) rescue, cisplatin 5 μg/ml, 48 h, n=1-4: biological replicates, listed as cis): 6.91 and 7.48 and 7.23 | Apoptotic death (KB-3-1cisR cells [4]; KB-3-1cisR, KQ, sheet Figure 6E, replicate n=3): 10 | Apoptotic death (KB-3-1cisR cells [4]; KB-3-1cisR, shDLAT, sheet Figure 5F, replicate n=1): 63.6 | Apoptotic death (KB-3-1cisR cells [4]; KB-3-1cisR, shDLAT, sheet Figure 5F, replicate n=2): 64.3 | GSH/GSSG (GSH/GSSG; A549cisR cells, pLKO.1, n=2): 20.0066 | GSH/GSSG (GSH/GSSG; A549cisR cells, shDLAT, n=3): 8.945 | GSH/GSSG (GSH/GSSG; KB-3-1cisR cells, shDLAT, n=1): 6.046 | GSH/GSSG (GSH/GSSG; KB-3-1cisR cells, shDLAT, n=2): 6.2227 | ROS level (cellular ROS; A549cisR cells, pLKO.1, n=1): 0.9837 | ROS level (cellular ROS; A549cisR cells, pLKO.1, n=2): 1.0031 | ROS level (cellular ROS; A549cisR cells, pLKO.1, n=3): 1.0132 | ROS level (cellular ROS; A549cisR, CTL, sheet Figure 5G, replicate n=1): 1.052 | ROS level (cellular ROS; A549cisR, CTL, sheet Figure 5G, replicate n=2): 0.9938 | ROS level (cellular ROS; A549cisR, CTL, sheet Figure 5G, replicate n=3): 0.9539 | ROS level (cellular ROS; KB-3-1cisR cells, pLKO.1, n=1): 1.037 | ROS level (cellular ROS; KB-3-1cisR cells, pLKO.1, n=2): 0.9651 | ROS level (cellular ROS; KB-3-1cisR cells, pLKO.1, n=3): 0.9984 | ROS level (cellular ROS; KB-3-1cisR cells, shDLAT, n=1): 2.065 | ROS level (cellular ROS; KB-3-1cisR cells, shDLAT, n=2): 2.047 | ROS level (cellular ROS; KB-3-1cisR, CTL, sheet Figure 5G, replicate n=1): 0.9879 | ROS level (cellular ROS; KB-3-1cisR, CTL, sheet Figure 5G, replicate n=2): 1.001 | ROS level (cellular ROS; KB-3-1cisR, CTL, sheet Figure 5G, replicate n=3): 1.011 | ROS level (cellular ROS; KB-3-1cisR, shDLAT+Flag-MTHFD2 (K44Q), sheet Figure 5G, replicate n=1): 1.351 | ROS level (cellular ROS; KB-3-1cisR, shDLAT+Flag-MTHFD2 (K44Q), sheet Figure 5G, replicate n=2): 1.32 | IC50 (KB-3-1cisR cells [5]): 60.5 µM | IC50 (A549cisR cells [6]): 17.6 µM
